{"source": "patent US20240099214A1", "about": "“PLANT DEFENCE GENE EXPRESSION” (UPL Corporation Limited, priority 2021, published 2024)", "key": {"[1]": {"test_system": "Subtilisin-like protease-like (gene 9, Solyc01g087800.2)", "experiment": "qRT-PCR expression of gene 9 in tomato leaves", "type": "in vivo, Tomato ecotype corbarino", "parameters": "key to RQ1 / RQ2 / RQ3 / RQ mean: relative expression normalized to a-tubulin housekeeping gene", "experimental": "(§1) Tomato ecotype “corbarino” reported to be susceptible to TSWV infection was used in the experiment. Plants were grown in pots in a climatic chamber with a photoperiod of 16/8 hour at 25° C.\n(§2) The viral strain (TSWV PV PV-0393) was utilized in the experiment. The virus was mechanically inoculated and propagated on tomato “corbarino”. The inoculum was prepared in an ice-cooled mortar grounding 1 gr of infected tomato tissue in 10 ml of Na-phosphate buffer 0.01M. The fresh prepared inoculum was stored in ice before use. Tomato plants at BBCH16 were dusted with Carborundum 600 mesh and selected leaves were rubbed with some droplets of inoculum. After 5 min. plants were sprayed with sterile water to remove the excess of inoculum and preserve the cell turgor.\n(§3) Four treatments were compared: i) Mock inoculated; ii) TSWV; iii) 0.25% Laminarin; iv) 0.25% Laminarin+TSWV. In the last treatment the virus was inoculated 24 hrs after the laminarin application.\n(§4) Total RNA was extracted from systemic infected tomato leaves by using the Quick-RNA Plant Kit (Zymo Research) following the manufacturer instructions. The extractions were carried out using three plants after 12 h, 24 h, 48 h, 72 h, 7 days after inoculation. Leaves were instantly frozen in liquid nitrogen after cutting to avoid any deterioration of the sample as well as any defense reaction. The RNA concentration was quantified by measuring the absorbance at 260 nm using a Nanodrop 2000 (Thermofisher). The purity of all of the RNA samples was assessed at an absorbance ratio of OD260/280 and OD260/230, while its structural integrity was checked by agarose gel electrophoresis. Only high-quality RNA with OD 260/280 and OD 260/230>2 was used for subsequent steps. Single-stranded cDNA was synthesized from 1 μg of total RNA using an iScript™ Select cDNA Synthesis Kit and random hexamers as primers (Bio-Rad, Milan, Italy), according to the manufacturer's instructions. Three biological replicates were created from the 3 leaves collected to test 15 genes. Alpha tubulin was used as reference gene.\n(§5) qPCR reactions were performed with BioRad (Applied Biosystems, Foster City, CA, USA) using SYBR R Green. Each reaction was performed in 20 μl containing 10 μl of 2× Power SYBR Green PCR Master Mix (Life Technologies), 0.2-0.3 μM primers and cDNA samples diluted 1:20. Each qPCR reaction was performed in triplicate. Reactions were run using the cycling parameter described previously (Reid et al., 2006) and the qPCR data were analyzed by the Ct method (Pfaffl, 2001). In order to analyze the qPCR data, a-tubulin gene was used as housekeeping to determine the relative expression level of the other genes analyzed in this work. For the determination of qPCR efficiency of each primer pairs, a standard curve was performed using the following cDNA dilutions: 1:4, 1:16, 1:64; 1:256 and 1:1024. Every measurement was made in triplicate. The corresponding qPCR efficiencies (E) were calculated for every primer pair with the software 7300 System SDS software (Applied Biosystems, Foster City, CA, USA) according to the equation E=(10−1/slope−1)×100 (Rutledge and Stewart, 2008).\n(§6) The significance of the differences between the gene expressions levels were compared by one-way ANOVA (p=0.01) and the means were separated by Tukey post-hoc test using SPSS ver.26 ([…])."}, "[2]": {"test_system": "Avr/Cf9 rapidly elicited protein 75 (gene 5, Solyc11g010250.1)", "experiment": "qRT-PCR expression of gene 5 in tomato leaves", "type": "in vivo, Tomato ecotype corbarino", "parameters": "key: relative expression normalized to a-tubulin housekeeping gene", "experimental": "as §1, §2, §3, §4, §5, §6"}}, "data": [{"substance": "laminarin", "values": [{"measurement": "RQ1", "setting": "[1]; 12 hr, Laminarin + virus", "value": 0.9838}, {"measurement": "RQ2", "setting": "[1]; 12 hr, Laminarin + virus", "value": 0.8556}, {"measurement": "RQ3", "setting": "[1]; 12 hr, Laminarin + virus", "value": 10.797}, {"measurement": "RQ mean", "setting": "[1]; 12 hr, Laminarin + virus", "value": 0.9730}, {"measurement": "RQ1", "setting": "[1]; 12 hr, Laminarin alone", "value": 0.8527}, {"measurement": "RQ2", "setting": "[1]; 12 hr, Laminarin alone", "value": 0.8398}, {"measurement": "RQ3", "setting": "[1]; 12 hr, Laminarin alone", "value": 10.240}, {"measurement": "RQ mean", "setting": "[1]; 12 hr, Laminarin alone", "value": 0.9055}, {"measurement": "RQ1", "setting": "[1]; 24 hr, Laminarin + virus", "value": 0.8394}, {"measurement": "RQ2", "setting": "[1]; 24 hr, Laminarin + virus", "value": 10.098}, {"measurement": "RQ3", "setting": "[1]; 24 hr, Laminarin + virus", "value": 11.565}, {"measurement": "RQ mean", "setting": "[1]; 24 hr, Laminarin + virus", "value": 10.019}, {"measurement": "RQ1", "setting": "[1]; 24 hr, Laminarin alone", "value": 13.867}, {"measurement": "RQ2", "setting": "[1]; 24 hr, Laminarin alone", "value": 0.9303}, {"measurement": "RQ3", "setting": "[1]; 24 hr, Laminarin alone", "value": 10.466}, {"measurement": "RQ mean", "setting": "[1]; 24 hr, Laminarin alone", "value": 11.212}, {"measurement": "gene 9 expression compared to TSWV treatment", "setting": "[1]; 48 hr, 0.25% laminarin + TSWV inoculated 24 hrs later", "value": "inverted"}, {"measurement": "gene 9 expression compared to TSWV treatment", "setting": "[1]; 48 hr, 0.25% laminarin alone", "value": "inverted"}, {"measurement": "RQ1", "setting": "[1]; 48 hr, Laminarin + virus", "value": 15.088}, {"measurement": "RQ2", "setting": "[1]; 48 hr, Laminarin + virus", "value": 17.637}, {"measurement": "RQ3", "setting": "[1]; 48 hr, Laminarin + virus", "value": 13.474}, {"measurement": "RQ mean", "setting": "[1]; 48 hr, Laminarin + virus", "value": 15.400}, {"measurement": "RQ1", "setting": "[1]; 48 hr, Laminarin alone", "value": 16.481}, {"measurement": "RQ2", "setting": "[1]; 48 hr, Laminarin alone", "value": 15.436}, {"measurement": "RQ3", "setting": "[1]; 48 hr, Laminarin alone", "value": 13.847}, {"measurement": "RQ mean", "setting": "[1]; 48 hr, Laminarin alone", "value": 15.255}, {"measurement": "RQ1", "setting": "[1]; 72 hr, Laminarin + virus", "value": 0.9998}, {"measurement": "RQ2", "setting": "[1]; 72 hr, Laminarin + virus", "value": 10.127}, {"measurement": "RQ3", "setting": "[1]; 72 hr, Laminarin + virus", "value": 0.9578}, {"measurement": "RQ mean", "setting": "[1]; 72 hr, Laminarin + virus", "value": 0.9901}, {"measurement": "RQ1", "setting": "[1]; 72 hr, Laminarin alone", "value": 16.204}, {"measurement": "RQ2", "setting": "[1]; 72 hr, Laminarin alone", "value": 0.7923}, {"measurement": "RQ3", "setting": "[1]; 72 hr, Laminarin alone", "value": 18.354}, {"measurement": "RQ mean", "setting": "[1]; 72 hr, Laminarin alone", "value": 14.160}, {"measurement": "gene 9 expression", "setting": "[1]; 72 hr, after the treatment with laminarin", "value": "no clear overexpression"}, {"measurement": "RQ1", "setting": "[2]; 12 hr, Laminarin + virus", "value": 0.8046}, {"measurement": "RQ2", "setting": "[2]; 12 hr, Laminarin + virus", "value": 10.612}, {"measurement": "RQ3", "setting": "[2]; 12 hr, Laminarin + virus", "value": 11.537}, {"measurement": "RQ mean", "setting": "[2]; 12 hr, Laminarin + virus", "value": 10.065}, {"measurement": "RQ1", "setting": "[2]; 12 hr, Laminarin alone", "value": 0.7901}, {"measurement": "RQ2", "setting": "[2]; 12 hr, Laminarin alone", "value": 11.285}, {"measurement": "RQ3", "setting": "[2]; 12 hr, Laminarin alone", "value": 0.9408}, {"measurement": "RQ mean", "setting": "[2]; 12 hr, Laminarin alone", "value": 0.9531}, {"measurement": "RQ1", "setting": "[2]; 24 hr, Laminarin + virus", "value": 10.601}, {"measurement": "RQ2", "setting": "[2]; 24 hr, Laminarin + virus", "value": 12.023}, {"measurement": "RQ3", "setting": "[2]; 24 hr, Laminarin + virus", "value": 0.9700}, {"measurement": "RQ mean", "setting": "[2]; 24 hr, Laminarin + virus", "value": 10.775}, {"measurement": "RQ1", "setting": "[2]; 24 hr, Laminarin alone", "value": 11.135}, {"measurement": "RQ2", "setting": "[2]; 24 hr, Laminarin alone", "value": 12.189}, {"measurement": "RQ3", "setting": "[2]; 24 hr, Laminarin alone", "value": 0.9994}, {"measurement": "RQ mean", "setting": "[2]; 24 hr, Laminarin alone", "value": 11.106}, {"measurement": "RQ1", "setting": "[2]; 48 hr, Laminarin + virus", "value": 0.8610}, {"measurement": "RQ2", "setting": "[2]; 48 hr, Laminarin + virus", "value": 13.586}, {"measurement": "RQ3", "setting": "[2]; 48 hr, Laminarin + virus", "value": 10.405}, {"measurement": "RQ mean", "setting": "[2]; 48 hr, Laminarin + virus", "value": 10.867}, {"measurement": "RQ1", "setting": "[2]; 48 hr, Laminarin alone", "value": 0.9204}, {"measurement": "RQ2", "setting": "[2]; 48 hr, Laminarin alone", "value": 12.321}, {"measurement": "RQ3", "setting": "[2]; 48 hr, Laminarin alone", "value": 10.531}, {"measurement": "RQ mean", "setting": "[2]; 48 hr, Laminarin alone", "value": 10.685}, {"measurement": "RQ1", "setting": "[2]; 72 hr, Laminarin + virus", "value": 17.401}, {"measurement": "RQ2", "setting": "[2]; 72 hr, Laminarin + virus", "value": 30.624}, {"measurement": "RQ3", "setting": "[2]; 72 hr, Laminarin + virus", "value": 25.095}, {"measurement": "RQ mean", "setting": "[2]; 72 hr, Laminarin + virus", "value": 24.373}, {"measurement": "RQ1", "setting": "[2]; 72 hr, Laminarin alone", "value": 22.196}, {"measurement": "RQ2", "setting": "[2]; 72 hr, Laminarin alone", "value": 23.867}, {"measurement": "RQ3", "setting": "[2]; 72 hr, Laminarin alone", "value": 23.473}, {"measurement": "RQ mean", "setting": "[2]; 72 hr, Laminarin alone", "value": 23.179}]}]}
